# System: MiaPaCa-2 cells
# Assay: In vivo study, MiaPaCa-2 subcutaneous tumor in nude mice
# Settings: 0.27 mg/kg tail vein injection, 18th day; start 125 mm^3; PBS group 600 mm^3
# Protocol: In an embodiment, mice (BALB/cAnN.Cg-Foxn1nu/CrlNarl mice) are reared until 6 weeks of age, and 1×10^6 of MiaPaCa-2 cells are subcutaneously injected into the right rear leg of the mice. […] The experiment is performed until the 18th day, and the tumor size is measured every 2 days. The measurement formula of the tumor size is as follows: ½ (L×W^2), wherein L represents the longest diameter of the tumor; W represents the shortest diameter of the tumor.
row,Compound,tumor size [mm^3]
1,CC(=O)O[C@@]12CO[C@@H]1C[C@H](O)[C@@]1(C)C(=O)[C@H](O)C3=C(C)[C@@H](OC(=O)[C@H](O)[C@@H](NC(=O)OC(C)(C)C)c4ccccc4)C[C@@](O)([C@@H](OC(=O)c4ccccc4)[C@H]21)C3(C)C [Taxatere],68
2,CC[C@@]1(O)C(=O)OCc2c1cc1n(c2=O)Cc2cc3ccccc3nc2-1 [CPT],52
3,COc1cccc2c1C(=O)c1c(O)c3c(c(O)c1C2=O)C[C@@](O)(C(=O)CO)C[C@@H]3O[C@H]1C[C@H](N)[C@H](O)[C@H](C)O1 [Doxorubicin],64
4,Nc1ccn([C@@H]2O[C@H](CO)[C@@H](O)C2(F)F)c(=O)n1 [Gemzar],30

# — patent US20190350939A1, “CANCER TREATMENT METHOD USING Ni-SOD MIMIC COMPOUND” (NATIONAL CHIAO TUNG UNIVERSITY, priority 2018, published 2019)
